The values that follow are results of earlier work, collected in patent publication US20100035949A1 (priority 2006, published 2010).

Each structure is given as a SMILES string.

For series [1] the following is noted: humans.
The conditions of series [2]: pH dependent; decreases as pH increases from acidic to neutral.

Turning to `CCCCC(=O)N(Cc1ccc(-c2ccccc2-c2nnn[nH]2)cc1)[C@H](C(=O)O)C(C)C` [valsartan, (S)-N-valeryl-N-{[2′-(1H-tetrazole-5-yl)-biphenyl4-yl]-methyl}-valine], the oral bioavailability entry in series [1] (known dosage forms) is “about 25%”. Also, in series [1] (wide range with large inter- and intra-subject variabilities), the “oral bioavailability, range” value is 25-40%. The permeability entry in series [2] was “low”.
